# Laboratory results as given in US20090075926A1, “METHOD FOR IDENTIFYING AND MANIPULATING CELLS” (priority 2006, published 2009).
# T1: PSMGFR (MUC1*) peptide (Homo sapiens, UniProt P15941)
# T1 sequence (P15941 1110-1154 limits assumed): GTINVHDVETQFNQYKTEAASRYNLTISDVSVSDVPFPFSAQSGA
# B1: NM23-H3: recombinant NM23-H3 protein (protein, UniProt Q13232 1-169, looked up)
# Nucleoside diphosphate kinase …: MICLVLTIFANLFPAACTGAHERTFLAVKPDGVQRRLVGEIVRRFERKGFKLVALKLVQASEELLREHYAELRERPFYGRLVKYMASGPVVAMVWQGLDVVRTSRALIGATNPADAPPGTIRGDFCIEVGKNLIHGSDSVESARREIALWFRADELLCWEDSAGHWLYE
# B2: G-CSF: granulocyte colony stimulating factor (protein, UniProt P09919 31-207, looked up)
# Granulocyte …: TPLGPASSLPQSFLLKCLEQVRKIQGDGAALQEKLVSECATYKLCHPEELVLLGHSLGIPWAPLSSCPSQALQLAGCLSQLHSGLFLYQGLLQALEGISPELGPTLDTLQLDVADFATTIWQQMEELGMAPALQPTQGAMPAFASAFQRRAGGVLVASHLQSFLEVSYRVLRHLAQP
# B3: NM23-H2: recombinant NM23-H2 protein (protein, UniProt P22392 1-152, looked up)
# Nucleoside diphosphate kinase …: MANLERTFIAIKPDGVQRGLVGEIIKRFEQKGFRLVAMKFLRASEEHLKQHYIDLKDRPFFPGLVKYMNSGPVVAMVWEGLNVVKTGRVMLGETNPADSKPGTIRGDFCIQVGRNIIHGSDSVKSAEKEISLWFKPEELVDYKSCAHDWVYE
# Tests used:
# [1] = test system: H9 human embryonic stem cells; experiment: human embryonic stem cell growth / live-dead assay on matrigel; type: cell-based; details: for live stem cells when free peptide is added to monovalent anti-MUC1*: monovalent anti-MUC1* plus free MUC1* peptide vs no peptide
# Protocol: The details are that H9 low passage number hESCs were grown over matrigel for 7 days. To one set of wells was added bivalent anti-PSMGFR; to a second set was added the monovalent anti-PSMGFR; and to a third set buffer was added as a control. The results were that the addition of monovalent anti-PSMGFR caused stem cells to die within 8 hours. Cells immediately rounded up and within hours floated to the top of the media. […] Colonies were larger and in general had less differentiated cells.
# Based on the findings that MUC1* mediates growth in cancer cells, experiments were devised to show whether or not stem cell growth could be manipulated by altering the dimerization state of MUC1*. A set number of human embryonic stem cells, H9p55, were plated onto matrigel. Cells were treated with either: 1) the bivalent anti-MUC1* antibody (rabbit polyclonal antibody raised the PSMGFR sequence), which dimerizes the MUC1* portion of the receptor; 2) the monovalent form of this same antibody, which binds to a single MUC1* receptor and prevents dimerization; or 3) nothing added as a control. The most striking result was that nearly all the cells, to which the monovalent anti-MUC1* antibody was added, died within 8 hours of the treatment, see FIGS. 25 and 26. […] A complete reversal of the monovalent antibody induced cell death was not expected since the free peptide could also compete with the cell surface MUC1* receptor for binding to the activating ligand. […] Therefore, the experiment was repeated but the analysis was done in a manner that resultant cell numbers could be quantitated.
# A given number of cells H9p55 were added to each well. Again, the cells were treated with either bivalent anti-MUC1*, monovalent anti-MUC1* or no antibody as a control and then counted on a cell counting instrument. The graph of FIG. 32 summarizes the results. Again, treatment with the monovalent anti-MUC1* antibody caused cell death within 8 hours. […] The graph of FIG. 33 gives the details of this experiment. […]
# HEL cells = details: recombinant human protein as GST fusion; cited from earlier work
# [2] = test system: hematopoietic progenitor cells (CD34+CD38+); details: recombinant protein added; cited from earlier work
# [3] = test system: hematopoietic stem cells (CD34++CD38−); details: recombinant protein added; cited from earlier work
# [4] = test system: ERK2 phosphorylation (MAP kinase pathway) via PSMGFR region of MUC1; experiment: western blot of ERK2 phosphorylation upon MUC1* dimerization and small molecule competition; type: cell-based; details: competitor small molecule present with anti-PSMGFR
# Excerpt: FIG. 6 is a western blot of a competition experiment in which small molecules that bind to the PSMGFR region of MUC1 compete with anti-PSMGFR for binding to the site. […] The chemical formula for the competitor compound MN 9 referred to in this figure is
# The western blot probe antibody is phospho-ERK2. FIG. 6 is a western blot of a competition experiment in which small molecules that bind to the PSMGFR region of MUC1 compete with anti-PSMGFR for binding to the site.
# [5] = test system: MUC1*-positive cancer cells; experiment: growth of MUC1*-positive cancer cells with NM23; type: cell-based
# PSMGFR (MUC1*) peptide = target: T1, PSMGFR (MUC1*) peptide; experiment: immunoprecipitation with histidine-tagged PSMGFR (MUC1*) peptide and western blot with anti-NM23; type: binding; details: T47D cancer cell extracts
# Protocol: NM23 is the ligand that dimerizes and activates the MUC1* growth factor receptor. T47D cancer cell extracts were immunoprecipitated with magnetic beads that were pre-bound with histidine-tagged PSMGFR (MUC1*) peptide. The captured MUC1* binding species were then separated by SDS-PAGE. A western blot was then performed by probing the gel with an antibody that recognized NM23 H1.
# shed MUC1 = details: breast cancer patients; cited from earlier work
molecule,measurement,setting,value
"MUC1* peptide: free peptide of the MUC1* (PSMGFR) extracellular sequence, competes with cell surface MUC1* (GTINVHDVETQFNQYKTEAASRYNLTISDVSVSDVPFPFSAQSGA; Fragment of MUC1 Growth Factor Receptor)",stem cell count on addition of MUC1* peptide,"[1]; bFGF added, with or without bivalent anti-MUC1*",drop in the cell count
same,live stem cells when free peptide is added to monovalent anti-MUC1*,[1],more live cells
same,live stem cells when free peptide is added to monovalent anti-MUC1*,[1]; listed as MUC1* free peptide,increase in the number of live cells
NM23-H1: recombinant NM23-H1 protein,erythroid differentiation of HEL cells by TGF-β1,HEL cells,block erythroid differentiation
same,"differentiation into granulocyte, macrophage, or granulocyte-macrophage colonies",[2],reduced the differentiation
same,growth of hematopoietic stem cells,[3],did not induce growth
O=C(c1ccc2ccccc2c1)N1CCc2c([nH]c3ccccc23)C1c1ccc(C(F)(F)F)cc1 (stereo not drawn) [Compound MN 9],ERK2 phosphorylation in competition with anti-PSMGFR,[4],ERK2 phosphorylation is inhibited
NM23: natural ligand that dimerizes and activates the MUC1* growth factor receptor,growth of MUC1*-positive cancer cells,[5],stimulate the growth
same,binding to MUC1* peptide (immunoprecipitated species reacts with anti-NM23),PSMGFR (MUC1*) peptide,ligand to MUC1
B1,"differentiation into granulocyte, macrophage, or granulocyte-macrophage colonies",[2],reduced the differentiation
same,growth of hematopoietic stem cells,[3],did not induce growth
B2,serum levels of shed MUC1,shed MUC1,greatly increased
B3,erythroid differentiation of HEL cells by TGF-β1,HEL cells,block erythroid differentiation
same,"differentiation into granulocyte, macrophage, or granulocyte-macrophage colonies",[2],reduced the differentiation
same,growth of hematopoietic stem cells,[3],did not induce growth
